From patent publication US4709083A, “Method of making boron analogues” (The United States of America as represented by the …, priority 1986, dated 1987)

Tests used:
serum cholesterol = experiment: hyperlipidemic screen: serum cholesterol levels (modified Liebermann-Burchard reaction); assay type: in vivo; conditions: male CF1 mice, intraperitoneal, 20 mg/kg day, 1% aqueous carboxymethylcellulose
Procedure: (§1) A hyperlipidemic screen was performed using the compounds of Examples 2 and 4. The compounds were suspended in 1% aqueous carboxymethylcellulose and adimistered to male CF1 mice intraperitoneally for 16 days at a dosage of 20 mg/kg day.
(§2) On days 9 and 16 blood was obtained by tail vein bleeding and the serum separated by centrifugation for 3 min.
(§3) Serum cholesterol levels were determined using a modification of the Liebermann-Burchard reaction, see Ness et al, Clin. Chim. Acta, v. 10, p. 229, (1964). Serum triglicerides were determined using the Fisher, Hycel Triglyceride Test Kit, a commercially available kit.

serum triglyceride = experiment: hyperlipidemic screen: serum triglycerides (Fisher, Hycel Triglyceride Test Kit); assay type: in vivo; conditions: male CF1 mice, intraperitoneal, 20 mg/kg day, 1% aqueous carboxymethylcellulose
Procedure: as §1, §2, §3

Row | Structure (SMILES) | Serum cholesterol inhibition %, 9th Day (serum cholesterol) [%] | Serum cholesterol inhibition %, 16th Day (serum cholesterol) [%] | Triglyceride inhibition %, 16th Day (serum triglyceride) [%]
1 | [BH3-][N+](C)(C)CCOC(C)=O [Example 2, 2 (Acetoxyethyl)dimethylamine-borane] | 28 | 41 | 32
2 | [BH3-][N+](C)(C)CCOC(=O)c1ccccc1 [Example 4, 2-(benzoyloxyethyl)dimethylamine-Borane] | 31 | 37 | 31
